According to US7592168B2, “Cephalosporin C acylase mutant and method for preparing 7-ACA using same” (Sandoz AG, priority 2003, dated 2009):
Residue numbers refer to the chain shown, from its start.

What was measured:
Type in all cases: biochemical
[1] = target: T1, Pseudomonas sp. SE83 CPC acylase AcyII, wild type, SEQ ID NO: 2 (alpha-subunit SEQ ID NO: 4, beta-subunit SEQ ID NO: 5) (Pseudomonas sp., UniProt P15558); experiment: End-product inhibition by 7-ACA (inhibition constant), wild-type CPC acylase; details: end-product inhibition of CPC conversion; pH 8.5
T1 construct: made in house; host or cells: E. coli MC1061
T1 sequence (P15558 2-230): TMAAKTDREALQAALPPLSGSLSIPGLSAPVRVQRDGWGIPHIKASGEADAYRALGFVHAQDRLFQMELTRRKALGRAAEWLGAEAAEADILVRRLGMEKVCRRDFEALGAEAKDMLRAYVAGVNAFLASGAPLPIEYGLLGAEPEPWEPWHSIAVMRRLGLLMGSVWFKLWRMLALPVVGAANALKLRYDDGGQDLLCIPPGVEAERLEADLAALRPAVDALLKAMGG
T1 sequence (P15558 240-774): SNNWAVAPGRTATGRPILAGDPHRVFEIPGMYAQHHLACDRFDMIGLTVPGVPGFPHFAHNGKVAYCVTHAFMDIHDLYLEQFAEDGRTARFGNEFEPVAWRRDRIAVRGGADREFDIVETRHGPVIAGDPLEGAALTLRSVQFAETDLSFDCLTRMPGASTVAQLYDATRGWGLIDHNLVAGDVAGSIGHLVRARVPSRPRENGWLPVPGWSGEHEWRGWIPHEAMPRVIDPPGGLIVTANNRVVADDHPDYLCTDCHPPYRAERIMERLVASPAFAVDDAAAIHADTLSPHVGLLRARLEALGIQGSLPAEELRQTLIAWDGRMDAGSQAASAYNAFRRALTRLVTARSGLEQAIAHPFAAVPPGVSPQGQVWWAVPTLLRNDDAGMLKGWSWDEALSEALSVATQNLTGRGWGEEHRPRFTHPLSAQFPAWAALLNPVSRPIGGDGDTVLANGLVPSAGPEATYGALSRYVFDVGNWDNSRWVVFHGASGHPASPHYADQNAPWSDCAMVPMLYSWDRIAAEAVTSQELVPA
Procedure: (§1) The enzyme activity of CPC acylase mutant to CPC was measured according to the method described by Park et al. with minor modifications as follows (Park, et al., Kor. J. Appl. Microbiol. Biotechnol. 23: 559-564, 1995). A substrate solution was prepared by dissolving CPC (purity 74.2%; CJ Corp., Korea) in 0.1 M Tris-HCl buffer solution (pH 8.0) at a concentration of 20 mg/ml and adjusting pH to 8 with 1 N NaOH. 20 μl of the CPC solution was mixed with 20 μl of the crude enzyme solution prepared above and the reaction mixture was incubated at 37° C. for 5 min. After the reaction, the mixture (200 μl) of 50 mM NaOH and 20% glacial acetic acid (1:2) was added thereto to stop the reaction. 200 μl of the supernatant recovered from the reaction mixture by centrifugation was mixed with 40 μl of 0.5% (w/v) PDAB (p-dimethylaminobenzaldehyde; Sigma, USA) dissolved in a methanol and the reaction mixture was incubated at 37° C. for 10 min. After the reaction, the absorbance of reaction mixture was measured at 415 nm and quantified by comparing with a calibration curve of standard material. […] Meanwhile, the specific activity of CPC acylase mutant for CPC was determined by measuring the amount of protein remaining in the enzyme solution according to the method described by Bradford (Bradford, M., Anal. Biochem. 72: 248-254, 1976) and representing it as an active unit corresponding to 1 mg of protein. […]

[2] = target: T2, Pseudomonas sp. SE83 CPC acylase AcyII sixfold mutant S12, V121αA/G139αS/F58βN/I75βT/I176βV/S471βC (alpha-subunit SEQ ID NO: 7, beta-subunit SEQ ID NO: 8) (Pseudomonas sp., UniProt P15558, F297N/G140S/I314T/I415V/S710C/V122A); experiment: End-product inhibition by 7-ACA (inhibition constant), S12 sixfold mutant; details: end-product inhibition of CPC conversion; purified enzyme; pH 8.5
T2 construct: made in house; host or cells: E. coli MC1061
T2 sequence (P15558 2-230 V122A/G140S): T1 sequence (P15558 2-230) with V121A, G139S
T2 sequence (P15558 240-774 F297N/I314T/I415V/S710C): T1 sequence (P15558 240-774) with F58N, I75T, I176V, S471C
Procedure: as §1

[3] = target: T3, Pseudomonas sp. SE83 CPC acylase AcyII fivefold mutant F169αY/M31βL/F58βM/H70βS/I176βV (mI176) (Pseudomonas sp., UniProt P15558, F170Y/F297M/H309S/I415V/M270L); experiment: CPC hydrolysis kinetics (Lineweaver-Burk plot), fivefold mutant; details: substrate CPC; purified enzyme; 0.1 M Tris-HCl pH 8.0, 37° C.; Lineweaver-Burk plot
T3 construct: made in house; host or cells: E. coli MC1061
Procedure: (§2) The enzyme activity of CPC acylase mutant to CPC was measured according to the method described by Park et al. with minor modifications as follows (Park, et al., Kor. J. Appl. Microbiol. Biotechnol. 23: 559-564, 1995). A substrate solution was prepared by dissolving CPC (purity 74.2%; CJ Corp., Korea) in 0.1 M Tris-HCl buffer solution (pH 8.0) at a concentration of 20 mg/ml and adjusting pH to 8 with 1 N NaOH. 20 μl of the CPC solution was mixed with 20 μl of the crude enzyme solution prepared above and the reaction mixture was incubated at 37° C. for 5 min. After the reaction, the mixture (200 μl) of 50 mM NaOH and 20% glacial acetic acid (1:2) was added thereto to stop the reaction. 200 μl of the supernatant recovered from the reaction mixture by centrifugation was mixed with 40 μl of 0.5% (w/v) PDAB (p-dimethylaminobenzaldehyde; Sigma, USA) dissolved in a methanol and the reaction mixture was incubated at 37° C. for 10 min. After the reaction, the absorbance of reaction mixture was measured at 415 nm and quantified by comparing with a calibration curve of standard material. At this time, 1 unit has been defined as the amount of enzyme capable to produce 1 μmole of 7-ACA from CPC per minute. Meanwhile, the specific activity of CPC acylase mutant for CPC was determined by measuring the amount of protein remaining in the enzyme solution according to the method described by Bradford (Bradford, M., Anal. Biochem. 72: 248-254, 1976) and representing it as an active unit corresponding to 1 mg of protein. The reactivity of CPC acylase mutant to CPC was determined by the following steps of adding the same amount of protein to a reaction mixture, performing an enzyme reaction for a fixed time, measuring the amount of 7-ACA produced in the reaction mixture, and representing it as a relative value. The end-product inhibition by 7-ACA was determined by adding a protein corresponding to the same active unit to a reaction mixture, performing an enzyme reaction for a fixed time; measuring the amount of 7-ACA produced in the reaction mixture, and representing it as a relative value.
(§3) E. coli MC1061 transformant containing the recombinant plasmid introduced with the wild-type or the inventive CPC acylase mutant gene was cultivated in 1 l of a terrific broth (1.2% Bacto-Trypton, 2.4% Yeast Extract, 0.4% glycerol, […]) containing […] of chloramphenicol at 30° C. for 16 hr to obtain a pre-culture solution. 10 ml of the pre-culture solution was inoculated into the same medium, and then, cultured at 25° C., 200 rpm for 48 hr with vigorous shaking. The culture solution was subjected to centrifugation at 4° C., 8,000 rpm for 10 min to separate a precipitate, and the precipitate washed twice with 20 mM Tris-HCl buffer solution (pH 8.0). […]

[4] = tested on: Pseudomonas sp. SE83 CPC acylase AcyII fivefold mutant F169αY/M31βL/F58βM/H70βS/I176βV (mI176); experiment: as above; details: substrate CPC; fivefold mutant vs wild-type
Procedure: as §2, §3

T3 sequence (P15558 240-774 M270L/F297M/H309S/I415V): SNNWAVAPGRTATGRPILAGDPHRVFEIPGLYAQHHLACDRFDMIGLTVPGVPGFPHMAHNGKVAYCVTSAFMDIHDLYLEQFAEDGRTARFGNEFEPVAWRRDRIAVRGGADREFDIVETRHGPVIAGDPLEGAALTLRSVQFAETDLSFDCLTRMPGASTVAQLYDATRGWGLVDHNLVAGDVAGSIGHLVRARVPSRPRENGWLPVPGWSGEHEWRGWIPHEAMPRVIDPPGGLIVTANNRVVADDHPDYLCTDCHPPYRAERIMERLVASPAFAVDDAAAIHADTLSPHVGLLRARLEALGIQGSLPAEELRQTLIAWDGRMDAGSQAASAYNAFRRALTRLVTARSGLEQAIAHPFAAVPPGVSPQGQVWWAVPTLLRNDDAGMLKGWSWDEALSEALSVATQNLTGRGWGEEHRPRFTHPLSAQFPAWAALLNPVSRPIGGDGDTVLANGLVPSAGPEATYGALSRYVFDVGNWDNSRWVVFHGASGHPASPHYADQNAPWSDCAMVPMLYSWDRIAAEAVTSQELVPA
T3 sequence (P15558 2-230 F170Y): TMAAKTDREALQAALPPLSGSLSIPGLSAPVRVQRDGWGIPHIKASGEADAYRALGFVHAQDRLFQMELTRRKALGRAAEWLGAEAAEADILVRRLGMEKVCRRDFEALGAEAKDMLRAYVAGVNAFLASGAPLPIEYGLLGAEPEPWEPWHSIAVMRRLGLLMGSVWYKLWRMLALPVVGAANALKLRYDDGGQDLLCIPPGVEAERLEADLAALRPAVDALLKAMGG

Structure (SMILES)	Ki [1] [µM]	Ki [2] [µM]	Kcat [3] [s⁻¹]	Kcat/Km [3] [M⁻¹ s⁻¹]	higher reaction efficiency to CPC as compared with the wild-type enzyme [4]	lower Km value as compared with the wild-type enzyme [4]
CC(=O)OCC1=C(C(=O)O)N2C(=O)[C@@H](N)[C@H]2SC1 [7-ACA, 7-aminoacephalosporanic acid]	400	1900	–	–	–	–
CC(=O)OCC1=C(C(=O)O)N2C(=O)[C@@H](NC(=O)CCC[C@@H](N)C(=O)O)[C@H]2SC1 [CPC, Cephalosporin C]	–	–	2.4	300	about 15 fold	about 6.3 fold
